Laboratory results published in US10294202B2, “Pyrrolidinones as herbicides” (FMC Corporation, priority 2013, dated 2019).

Columns and labels:
[1] = tested on: barnyardgrass; experiment: Test A pre-/postemergence herbicide test; format: in vivo, Echinochloa crus-galli; conditions: for Barnyardgrass plant response rating: Preemergence, visual rating on 0 to 100 scale (0 no effect, 100 complete control)
Method in brief: (§1)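 Greenhouse pot test with pre- and postemergence application of surfactant-containing solvent formulations. Postemergence plants were 2–10 cm, one- to two-leaf stage. Response scored visually after ~10 days, 0 (no effect) to 100 (complete control).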

[2] = tested on: crabgrass, large; experiment: Test A pre-/postemergence herbicide test; format: in vivo, Digitaria sanguinalis; conditions: for Crabgrass, Large plant response rating: Preemergence, visual rating on 0 to 100 scale (0 no effect, 100 complete control)
Method in brief: as §1

[3] = tested on: giant foxtail; experiment: Test A pre-/postemergence herbicide test; format: in vivo, Setaria faberii; conditions: for Foxtail, Giant plant response rating: Preemergence, visual rating on 0 to 100 scale (0 no effect, 100 complete control)
Method in brief: as §1

[4] = tested on: morningglory; experiment: Test A pre-/postemergence herbicide test; format: in vivo, Ipomoea spp.; conditions: for Morningglory plant response rating: Preemergence, visual rating on 0 to 100 scale (0 no effect, 100 complete control)
Method in brief: as §1

[5] = tested on: pigweed; experiment: Test A pre-/postemergence herbicide test; format: in vivo, Amaranthus retroflexus; conditions: for Pigweed plant response rating: Preemergence, visual rating on 0 to 100 scale (0 no effect, 100 complete control)
Method in brief: as §1

[6] = tested on: velvetleaf; experiment: Test A pre-/postemergence herbicide test; format: in vivo, Abutilon theophrasti; conditions: for Velvetleaf plant response rating: Preemergence, visual rating on 0 to 100 scale (0 no effect, 100 complete control)
Method in brief: as §1

[7] = tested on: wheat; experiment: Test A pre-/postemergence herbicide test; format: in vivo, Triticum aestivum; conditions: for Wheat plant response rating: Preemergence, visual rating on 0 to 100 scale (0 no effect, 100 complete control)
Method in brief: as §1

[8] = tested on: corn; experiment: Test A pre-/postemergence herbicide test; format: in vivo, Zea mays; conditions: for Corn plant response rating: Preemergence, visual rating on 0 to 100 scale (0 no effect, 100 complete control)
Method in brief: as §1

[9] = tested on: rice; experiment: Test C flooded paddy test; format: in vivo, Oryza sativa; conditions: Flood
Method in brief: (§2)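 Plants grown to the 2-leaf stage; pots flooded to 3 cm above soil and compound applied directly into the paddy water, depth kept throughout. Greenhouse 13 to 15 days, then visual rating vs untreated controls on 0–100 scale (0 no effect, 100 complete control); dash means no result.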

[10] = tested on: sedge, umbrella; experiment: Test C flooded paddy test; format: in vivo, Cyperus difformis; conditions: Flood
Method in brief: as §2

[11] = tested on: ducksalad; experiment: Test C flooded paddy test; format: in vivo, Heteranthera limosa; conditions: Flood
Method in brief: as §2

[12] = tested on: barnyardgrass; experiment: Test C flooded paddy test; format: in vivo, Echinochloa crus-galli; conditions: Flood
Method in brief: as §2

[13] = Postemergence, 125 g ai/ha, 0 to 100 scale, 0 no effect, 100 complete control
[14] = Postemergence, 500 g ai/ha, 0 to 100 scale (0 no effect, 100 complete control)
[15] = preemergence, 500 g ai/ha, 0 to 100 scale (0 no effect, 100 complete control)
[16] = preemergence, 500 g ai/ha, 0 to 100 scale
[17] = 31 g ai/ha, scale of 0 to 100 where 0 is no effect and 100 is complete control, 13 to 15 days
[18] = 62 g ai/ha, scale of 0 to 100 where 0 is no effect and 100 is complete control, 13 to 15 days
[19] = 125 g ai/ha, scale of 0 to 100 where 0 is no effect and 100 is complete control, 13 to 15 days

SMILES: O=C1NCC(c2ccsc2)C1C(=O)Nc1ccccc1C(F)(F)F (racemic) [Compound 28]
- Plant response rating, Barnyardgrass [1, 13]: 0
- Plant response rating, Barnyardgrass [1, 14]: 0
- Barnyardgrass plant response rating ([1]; 125 g ai/ha): 0
- Plant response rating, Barnyardgrass [1, 15]: 20
- Plant response rating, Crabgrass, Large [2, 13]: 20
- Plant response rating, Crabgrass, Large [2, 14]: 40
- Crabgrass, Large plant response rating ([2]; 125 g ai/ha): 30
- Plant response rating, Crabgrass, Large [2, 16]: 80
- Plant response rating, Foxtail, Giant [3, 13]: 0
- Plant response rating, Foxtail, Giant [3, 14]: 0
- Foxtail, Giant plant response rating ([3]; 125 g ai/ha): 0
- Plant response rating, Foxtail, Giant [3, 16]: 20
- Plant response rating, Morningglory [4, 13]: 0
- Plant response rating, Morningglory [4, 14]: 0
- Morningglory plant response rating ([4]; 125 g ai/ha): 0
- Plant response rating, Morningglory [4, 16]: 0
- Plant response rating, Pigweed [5, 13]: 0
- Plant response rating, Pigweed [5, 14]: 0
- Pigweed plant response rating ([5]; 125 g ai/ha): 0
- Plant response rating, Pigweed [5, 16]: 0
- Plant response rating, Velvetleaf [6, 14]: 0
- Velvetleaf plant response rating ([6]; 125 g ai/ha): 0
- Plant response rating, Velvetleaf [6, 16]: 0
- Plant response rating, Wheat [7, 13]: 0
- Plant response rating, Wheat [7, 14]: 0
- Wheat plant response rating ([7]; 125 g ai/ha): 0
- Plant response rating, Wheat [7, 16]: 0
- Plant response rating, Corn [8, 13]: 0
- Plant response rating, Corn [8, 14]: 0
- Corn plant response rating ([8]; 125 g ai/ha): 0
- Plant response rating, Corn [8, 16]: 0
- Plant response rating, Rice [9, 17]: 0
- Plant response rating, Rice [9, 18]: 0
- Plant response rating, Rice [9, 19]: 0
- Plant response rating, Rice ([9]; 250 g ai/ha, scale 0 to 100): 0
- Plant response rating, Sedge, Umbrella [10, 17]: 0
- Plant response rating, Sedge, Umbrella [10, 18]: 0
- Plant response rating, Sedge, Umbrella [10, 19]: 0
- Plant response rating, Sedge, Umbrella ([10]; 250 g ai/ha, scale 0 to 100): 0
- Plant response rating, Ducksalad [11, 17]: 20
- Plant response rating, Ducksalad [11, 18]: 30
- Plant response rating, Ducksalad [11, 19]: 40
- Plant response rating, Ducksalad ([11]; 250 g ai/ha, scale 0 to 100): 85
- Plant response rating, Barnyardgrass [12, 17]: 0
- Plant response rating, Barnyardgrass [12, 18]: 0
- Plant response rating, Barnyardgrass [12, 19]: 0
- Plant response rating, Barnyardgrass ([12]; 250 g ai/ha, scale 0 to 100): 0

SMILES: O=C1NCC(c2ccc(F)c(F)c2)C1C(=O)Nc1cccc(F)c1F (racemic) [Compound 107]
- Plant response rating, Barnyardgrass [1, 13]: 50
- Plant response rating, Barnyardgrass [1, 14]: 80
- Barnyardgrass plant response rating ([1]; 125 g ai/ha): 20
- Plant response rating, Barnyardgrass [1, 15]: 70
- Plant response rating, Crabgrass, Large [2, 13]: 60
- Plant response rating, Crabgrass, Large [2, 14]: 70
- Crabgrass, Large plant response rating ([2]; 125 g ai/ha): 80
- Plant response rating, Crabgrass, Large [2, 16]: 90
- Plant response rating, Foxtail, Giant [3, 13]: 10
- Plant response rating, Foxtail, Giant [3, 14]: 70
- Foxtail, Giant plant response rating ([3]; 125 g ai/ha): 70
- Plant response rating, Foxtail, Giant [3, 16]: 80
- Plant response rating, Morningglory [4, 13]: 0
- Plant response rating, Morningglory [4, 14]: 40
- Morningglory plant response rating ([4]; 125 g ai/ha): 0
- Plant response rating, Morningglory [4, 16]: 0
- Plant response rating, Pigweed [5, 13]: 0
- Plant response rating, Pigweed [5, 14]: 30
- Pigweed plant response rating ([5]; 125 g ai/ha): 0
- Plant response rating, Pigweed [5, 16]: 20
- Plant response rating, Velvetleaf [6, 13]: 0
- Plant response rating, Velvetleaf [6, 14]: 20
- Velvetleaf plant response rating ([6]; 125 g ai/ha): 0
- Plant response rating, Velvetleaf [6, 16]: 0
- Plant response rating, Wheat [7, 13]: 0
- Plant response rating, Wheat [7, 14]: 0
- Wheat plant response rating ([7]; 125 g ai/ha): 0
- Plant response rating, Wheat [7, 16]: 0
- Plant response rating, Corn [8, 13]: 0
- Plant response rating, Corn [8, 14]: 0
- Corn plant response rating ([8]; 125 g ai/ha): 0
- Plant response rating, Corn [8, 16]: 0
- Plant response rating, Rice [9, 19]: 0
- Plant response rating, Rice ([9]; 250 g ai/ha, scale 0 to 100): 0
- Plant response rating, Rice ([9]; 500 g ai/ha, scale 0 to 100): 0
- Plant response rating, Rice ([9]; 1000 g ai/ha, scale 0 to 100): 0
- Plant response rating, Sedge, Umbrella [10, 19]: 0
- Plant response rating, Sedge, Umbrella ([10]; 250 g ai/ha, scale 0 to 100): 0
- Plant response rating, Sedge, Umbrella ([10]; 500 g ai/ha, scale 0 to 100): 0
- Plant response rating, Sedge, Umbrella ([10]; 1000 g ai/ha, scale 0 to 100): 0
- Plant response rating, Ducksalad [11, 19]: 0
- Plant response rating, Ducksalad ([11]; 250 g ai/ha, scale 0 to 100): 30
- Plant response rating, Ducksalad ([11]; 500 g ai/ha, scale 0 to 100): 60
- Plant response rating, Ducksalad ([11]; 1000 g ai/ha, scale 0 to 100): 70
- Plant response rating, Barnyardgrass [12, 19]: 0
- Plant response rating, Barnyardgrass ([12]; 250 g ai/ha, scale 0 to 100): 0
- Plant response rating, Barnyardgrass ([12]; 500 g ai/ha, scale 0 to 100): 0
- Plant response rating, Barnyardgrass ([12]; 1000 g ai/ha, scale 0 to 100): 20

SMILES: O=C1NC[C@@H](c2ccc(F)c(F)c2)[C@@H]1C(=O)Nc1ccccc1F [Compound 102]
- Plant response rating, Barnyardgrass [1, 13]: 0
- Plant response rating, Barnyardgrass [1, 14]: 0
- Barnyardgrass plant response rating ([1]; 125 g ai/ha): 0
- Plant response rating, Barnyardgrass [1, 15]: 0
- Plant response rating, Crabgrass, Large [2, 13]: 0
- Plant response rating, Crabgrass, Large [2, 14]: 0
- Crabgrass, Large plant response rating ([2]; 125 g ai/ha): 0
- Plant response rating, Crabgrass, Large [2, 16]: 0
- Plant response rating, Foxtail, Giant [3, 13]: 0
- Plant response rating, Foxtail, Giant [3, 14]: 0
- Foxtail, Giant plant response rating ([3]; 125 g ai/ha): 0
- Plant response rating, Foxtail, Giant [3, 16]: 0
- Plant response rating, Morningglory [4, 13]: 0
- Plant response rating, Morningglory [4, 14]: 0
- Morningglory plant response rating ([4]; 125 g ai/ha): 0
- Plant response rating, Morningglory [4, 16]: 0
- Plant response rating, Pigweed [5, 13]: 0
- Plant response rating, Pigweed [5, 14]: 0
- Pigweed plant response rating ([5]; 125 g ai/ha): 0
- Plant response rating, Pigweed [5, 16]: 0
- Plant response rating, Velvetleaf [6, 13]: 0
- Plant response rating, Velvetleaf [6, 14]: 0
- Velvetleaf plant response rating ([6]; 125 g ai/ha): 0
- Plant response rating, Velvetleaf [6, 16]: 0
- Plant response rating, Wheat [7, 13]: 0
- Plant response rating, Wheat [7, 14]: 0
- Wheat plant response rating ([7]; 125 g ai/ha): 0
- Plant response rating, Wheat [7, 16]: 0
- Plant response rating, Corn [8, 13]: 0
- Plant response rating, Corn [8, 14]: 0
- Corn plant response rating ([8]; 125 g ai/ha): 0
- Plant response rating, Corn [8, 16]: 0
- Plant response rating, Rice [9, 19]: 0
- Plant response rating, Rice ([9]; 250 g ai/ha, scale 0 to 100): 0
- Plant response rating, Rice ([9]; 500 g ai/ha, scale 0 to 100): 0
- Plant response rating, Rice ([9]; 1000 g ai/ha, scale 0 to 100): 0
- Plant response rating, Sedge, Umbrella [10, 19]: 0
- Plant response rating, Sedge, Umbrella ([10]; 250 g ai/ha, scale 0 to 100): 0
- Plant response rating, Sedge, Umbrella ([10]; 500 g ai/ha, scale 0 to 100): 0
- Plant response rating, Sedge, Umbrella ([10]; 1000 g ai/ha, scale 0 to 100): 0
- Plant response rating, Ducksalad [11, 19]: 0
- Plant response rating, Ducksalad ([11]; 250 g ai/ha, scale 0 to 100): 0
- Plant response rating, Ducksalad ([11]; 500 g ai/ha, scale 0 to 100): 0
- Plant response rating, Ducksalad ([11]; 1000 g ai/ha, scale 0 to 100): 0
- Plant response rating, Barnyardgrass [12, 19]: 0
- Plant response rating, Barnyardgrass ([12]; 250 g ai/ha, scale 0 to 100): 0
- Plant response rating, Barnyardgrass ([12]; 500 g ai/ha, scale 0 to 100): 0
- Plant response rating, Barnyardgrass ([12]; 1000 g ai/ha, scale 0 to 100): 0
